Test results published in patent US20150290234A1, “TARGETED INTRACELLULAR DELIVERY OF ANTIVIRAL AGENTS” (BBB Holding B.V., priority 2007, published 2015).
Converted amounts (≈) assume the structure as drawn. Where two headings read alike, the source gives them in different places.

Tests used:
YFV = experiment: microbe, parasite or virus in culture; format: cell-based; conditions: Yellow fever virus, Vero, 120 h, read-out: EC50 for inhibition of RNA synthesis [EC50 RNA]
[1] = cited from earlier work
LLC-PK1 cells [2] = experiment: MTT-assay; conditions: 10 mg/mL RBV, after 5 h, found to be toxic
influenza = conditions: therapy started within 48 hours of the onset of symptoms; cited from earlier work
[3] = cited from earlier work; remark: listed apart in the source
[4] = target: T1, DTR expressed on LLC-PK1 cells (Sus scrofa, UniProt Q01580); experiment: Receptor-specific cell uptake, fluorescence in cell lysate; format: cell-based, porcine; conditions: LLC-PK1, 5 microgram per well, 2 hours
T1 construct: Cells with a known expression of the DTR were used from several species and origins; endogenous in cells; host or cells: LLC-PK1 (porcine kidney epithelial cells)
Method: (§1) Cells with a known expression of the DTR were used from several species and origins, including porcine kidney epithelial cells (LLC-PK1), bovine brain capillary endothelial cells (BCEC), monkey kidney fibroblast cells (COS-1), and human glioblastoma cells. In particular, LLC-PK1 cells were incubated for 1 h in 24-wells plates on 400 microliter DMEM+FCS supplemented with 100 microgram/ml heparin, before 5 microgram CRM197-FITC or HRP-FITC was added to the well. Two hours later the cells were washed 3 times and the cells were lysated in 100 microliter 0.1 N NaOH, and fluorescence was determined at 480/530 nm in a fluostar plate reader. Cell protein per well was determined with a Biorad DC assay and fluorescence in the cell lysate was calculated per mg cell protein. In a separate group of cells, an access of 100 microgram free CRM197 was added to the well, 30 minutes before the CRM197-FITC conjugate was added to the medium. […] In a separate set of experiments, LLC-PK1 cells were cultured in similar conditions on coverslips and exposed to CRM197-FITC, HRP-FITC or sodium fluorescein. After fixation and mounting with vectashield with DAPI for nuclear staining, the coverslips were analyzed on a fluorescence microscope and photographed. […] Identical results were found on BCEC, COS-1 and human glioblastoma cells, also after several time points (up to 24 hours after exposure).

LLC-PK1 cells [5] = experiment: Cell uptake and localization on coverslips, fluorescence microscope; format: cell-based, porcine; conditions: FIG. 1
Method: as §1

[6] = Biodistribution of FITC conjugates; conditions: hamster, 90 minutes after i.v. injection, FIG. 4
[7] = Plasma pharmacokinetics of FITC-labelled protein after intravenous bolus; conditions: hamster, i.v. 1 mg FITC-labelled protein, calculated sixty minutes after injection
viral DNA polymerase = conditions: cited from earlier work
CMV-infected cells = conditions: cited from earlier work
[8] = Pharmacokinetics of sodium fluorescein after intravenous bolus; conditions: rats, 1 mg intravenous bolus
[9] = target: diphtheria toxin receptor (DTR) expressed on LLC-PK1 cells (porcine kidney epithelial cells) (porcine) (UniProt Q01580); experiment: cell-based or functional assay
HRP-PEG-liposomes = target: T2, HRP-PEG-liposomes (UniProt P00433 31-338); experiment: fluorescence microscopy of LLC-PK1 cells after 4 hours incubation
T2 sequence (looked up): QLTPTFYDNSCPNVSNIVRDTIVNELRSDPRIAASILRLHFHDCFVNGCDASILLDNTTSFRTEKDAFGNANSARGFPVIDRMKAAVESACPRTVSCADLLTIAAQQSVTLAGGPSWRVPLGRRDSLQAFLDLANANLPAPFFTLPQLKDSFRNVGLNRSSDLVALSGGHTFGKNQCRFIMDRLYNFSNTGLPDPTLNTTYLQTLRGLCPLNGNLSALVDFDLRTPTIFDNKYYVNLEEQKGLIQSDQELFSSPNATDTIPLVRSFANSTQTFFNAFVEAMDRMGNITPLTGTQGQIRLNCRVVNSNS

[10] = target: T3, HRP-FITC (horseradish peroxidase labelled with FITC) (UniProt P00433 31-338); experiment: uptake by LLC-PK1 cells for 2 h, fluorescence of the cell lysate; fluorescence microscopy also showed no signal
T3 construct: also called HRP-FITC conjugate
T3 sequence (looked up): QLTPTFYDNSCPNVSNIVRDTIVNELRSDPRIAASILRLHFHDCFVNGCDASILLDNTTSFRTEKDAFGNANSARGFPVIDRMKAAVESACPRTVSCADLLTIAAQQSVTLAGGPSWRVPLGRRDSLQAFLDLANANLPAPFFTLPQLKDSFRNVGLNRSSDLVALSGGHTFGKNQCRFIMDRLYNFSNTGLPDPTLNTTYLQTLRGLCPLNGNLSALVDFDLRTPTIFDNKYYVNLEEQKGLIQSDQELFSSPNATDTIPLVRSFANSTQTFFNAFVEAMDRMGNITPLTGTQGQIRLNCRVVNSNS

[11] = target: T3, HRP-FITC (horseradish peroxidase …); experiment: fluorescence microscopy of cells on coverslips
[12] = 500 mg of probenecid every six hours

For `NC(=O)c1ncn([C@@H]2O[C@H](CO)[C@@H](O)[C@H]2O)n1` [RBV, 1-beta-D-ribofuranosyl-1,2,4-triazole-3-carboxamide], the EC50 (YFV) is given as 12.3 ± 5.6 µg/mL (≈ 50.4 µM), the “absorption from the GI tract with a fatty meal” value ([1]; fatty meal) is given as “about 75%” and the “absorption from the GI tract” value ([1]; in vivo) is given as “about 45%”. The “fraction of absorbed drug excreted into the urine unchanged” value ([1]; in vivo) was “About a third”, the “mean half-life for multiple doses in the body” value ([1]; multiple doses) was “about 12 days” and the “half-life after single dose” value ([1]; single dose) was 0.5 h. For the same molecule, the cell viability (LLC-PK1 cells [2]) was 60%.

In the case of `CC(=O)NC1C(NC(=N)N)C=C(C(=O)O)OC1C(O)C(O)CO` (centres unmarked) [Zanamivir, 5-acetamido-4-guanidino-6-(1,2,3-trihydroxypropyl)-5,6-dihydro-4H-pyran-2-carboxylic acid], the “(elimination) half-life” value ([1]; in vivo) is listed as 2.5 to 5.1 h, the “protein binding in plasma” value ([1]; in vivo) is listed as less than 10% and the oral bioavailability [1] is listed as 2%. The “reduction of time to symptom resolution” value (influenza) was 1.5 days.

In the case of `Nc1nc2c(ncn2COCCO)c(=O)[nH]1` [Aciclovir], the “protein binding in plasma” value ([1]; in vivo) is listed as 30%, the oral bioavailability [1] is listed as 10-20% and the “time of peak plasma concentration” value ([1]; orally administered) is listed as 1 to 2 h. For the same molecule, the water solubility [3] was “poorly water soluble”.

In the case of “HRP-FITC: horseradish peroxidase (HRP) labelled with FITC as a control protein”, the “conjugate found in the cell lysates” value [4] is reported as “No HRP-FITC was found”, the “fluorescence signal / uptake in cells” value (LLC-PK1 cells [5]) is reported as “No fluorescence signal was found” and the “accumulation in tissues (brain, heart, lung, liver, spleen, kidney)” value [6] is reported as “not (or hardly) detectable in these tissues”. It also gave a plasma half-life [7] of 0.633 h.

For `Nc1nc2c(ncn2COCCOP(=O)(O)OP(=O)(O)OP(=O)(O)O)c(=O)[nH]1` [Aciclo-GTP], the “affinity to viral relative to cellular polymerase” value (viral DNA polymerase) is listed as “approximately 100 times” and the “half-life compared to GCV-TP in infected cells” value (CMV-infected cells) is listed as “four- to five-fold shorter”.

With `O=C([O-])c1ccccc1-c1c2ccc(=O)cc-2oc2cc([O-])ccc12.[Na+].[Na+]` [sodium fluorescein] the “fluorescence signal / uptake in cells” value (LLC-PK1 cells [5]) was “No fluorescence signal was found”, the AUC [8] was 13 microgram*min/ml and the half-life [8] was 0.583 h.

Molecule “CRM197-FITC conjugate (from UniProt P00588 33-567) (ligand)” has a cell uptake: CRM197-FITC in the cell lysate per mg cell protein after 2 hours (microgram per mg cell protein) [9] of 0.54.

For `Nc1nc(O)c2ncn(COC(CO)CO)c2n1` [ganciclovir], the half-life ([1]; depending on renal function) is listed as 2 to 6 h, the “elimination time in end-stage renal disease” value ([1]; end-stage renal disease) is listed as “over 24 hours” and the “absorption of the oral form, fasting” value ([1]; fasting) is listed as “about 5%”. The “concentration in the central nervous system relative to plasma level” value ([1]; in vivo) was “about 50 % of the plasma level”, the “plasma drug eliminated unchanged in the urine” value ([1]; in vivo) was “About 90%” and the oral bioavailability [1] was “approximately 5%”. The “absorption of the oral form, with food” value ([1]; with food) was “about 8%”.

For `CCOC(=O)C1=C[C@@H](OC(CC)CC)[C@H](NC(C)=O)[C@@H](N)C1` [Oseltamivir, (3R,4R,5S)-4-acetylamino-5-amino-3-(1-ethylpropoxy)-1-cyclohexene-1-carboxylic acid ethyl ester], the “change of half-life with probenecid” value [1, 12] is listed as “doubled”, the “change of peak plasma concentration (Cmax) with probenecid” value [1, 12] is listed as “doubled” and the “increase of overall systemic exposure (AUC) with probenecid” value [1, 12] is listed as 2.5 fold. For the same molecule, the “(elimination) half-life” value ([1]; in vivo) was 6 to 10 h and the oral bioavailability [1] was 75%.

B1: diphtheria toxin receptor (DTR) expressed on LLC-PK1 cells (porcine kidney epithelial cells) (receptor, UniProt Q01580 63-148, looked up)
chain: DLEEADLDLLRADFSSKPQALATPSKEERGKRKKKGKGLGKKRDPCLRKYKDFCIHGECKYVKELRAPSCICHPGYHGERCHGLSL
notes: whole, on cells; also called HB-EGF
B1: no binding (HRP-PEG-liposomes); no binding [10].

B2: diphtheria toxin receptor (DTR) on bovine brain capillary endothelial cells (BCEC) (receptor)
chain: DLEEANLDLFRAAFSSKPQALATPSKEERGKRKKKGKGLGKKRNPCLRRYKDFCIHGECKYVKELRVPTCICHPGYHGERCHGLSL
notes: whole, on cells; also called HB-EGF precursor
B2: no binding [11].

B3: diphtheria toxin receptor (DTR) on human glioblastoma cells (receptor, UniProt Q99075 63-148, looked up)
chain: DLQEADLDLLRVTLSSKPQALATPNKEEHGKRKKKGKGLGKKRDPCLRKYKDFCIHGECKYVKELRAPSCICHPGYHGERCHGLSL
notes: as for B2
B3: no binding [11].
